Test results as given in patent US9340572B2, “Taccalonolide microtubule stabilizers” (THE BOARD OF REGENTS OF THE UNIVERSITY OF TEXAS SYSTEM, priority 2011, dated 2016).
Read-outs that look alike come from different tables or passages of the source.

Tests used:
[1] = system: HeLa cells; assay: Inhibition of cellular proliferation, SRB assay in HeLa cells; format: cell-based; conditions: for IC50: HeLa cells, SRB assay; for fold increase in potency on epoxidation at C22-C23: epoxide compared with parent taccalonolide
Description: The determination of IC50 values was performed on taccalonolide material after NMR analysis and subsequent lyophilization. Ethanol or DMSO was used as the vehicle for all cellular studies.
The antiproliferative potencies of the taccalonolides were evaluated in HeLa cells using the SRB assay. Several new taccalonolides with low nanomoloar potency were identified, Table 1.

[2] = system: human mammary epithelial cells; assay: Cytotoxicity to normal cells; format: cell-based; conditions: concentrations 5 to 100-fold their IC50 values in HeLa
[3] = system: purified porcine brain tubulin; assay: Tubulin polymerization followed turbidimetrically; format: biochemical; conditions: 10 μM; 2 mg/ml tubulin, 10% glycerol, 1 mM GTP, 37° C., OD340
Description: FIG. 5—Effect of the taccalonolides on purified porcine brain tubulin. […] Tubulin polymerization was monitored by turbidity measurement at OD340.
The ability of these new potent taccalonolides to interact directly with tubulin was assessed by incubating purified porcine brain tubulin at a concentration of 2 mg/ml in the presence of 10% glycerol and 1 mM GTP, which allows for a baseline level of tubulin polymerization that can be followed turbidimetrically (FIG. 5).

[4] = system: HeLa cells; assay: Interphase microtubule bundling by indirect immunofluorescence; format: cell-based; conditions: 18 h; 200 nM AF, 200 nM AI, 70 nM AJ
Description: FIGS. 2A-D—Effect of the taccalonolides on interphase cells. HeLa cells were treated for 18 h with vehicle (FIG. 2A), 200 nM taccalonolide AF (FIG. 2B), 200 nM taccalonolide AI (FIG. 2C), or 70 nM taccalonolide AJ (FIG. 2D). Interphase microtubule structures were visualized by indirect immunofluorescence using a β-tubulin antibody.
(§1) Cellular microtubules in interphase and mitotic HeLa cells were visualized using indirect immunofluorescence techniques as previously described (Tinley et al., 2003). […] Representative images of interphase and mitotic cells were acquired using a Nikon Eclipse 80i fluorescence microscope and compiled using NIS Elements AR 3.0 software.

[5] = system: HeLa cells; assay: Mitotic spindle structures by indirect immunofluorescence; format: cell-based; conditions: 18 h; 125 nM AF, 200 nM AI, 35 nM AJ
From the text: FIGS. 4A-D—Effect of the taccalonolides on mitotic spindles. […] The microtubule structures in mitotic cells were visualized by indirect immunofluorescence using a β-tubulin antibody.
as §1
The effects of the taccalonolides on mitotic spindle structures were evaluated to test whether they caused mitotic spindle defects leading to cell cycle arrest. β-tubulin and DNA were visualized in HeLa cells by indirect immunofluorescence and DAPI staining, respectively. […] These mitotic cells contained multiple abnormal mitotic spindles, which is another common effect of microtubule stabilizing agents (FIGS. 4A-D).

[6] = system: SK-OV-3/MDR-1-6/6 versus SK-OV-3 cells; assay: Relative resistance, P-glycoprotein expressing cell line pair; format: cell-based; conditions: P-glycoprotein expressing SK-OV-3 pair
Description: (§2) FIG. 7—Effect of the taccalonolides in drug resistant and sensitive cells. IC50 values for inhibition of cellular proliferation for taccalonolides AF and AJ were determined in drug sensitive and drug resistant cell lines. The HeLa cell pair evaluated the effect of βIII tubulin expression on cell sensitivity and the ability of compounds to overcome drug resistance mediated by βIII tubulin expression. The SK-OV-3 cell line pair was used to evaluate the effects of the expression of P-glycoprotein (Pgp) on cell sensitivity and the ability of compounds to overcome Pgp-mediated drug resistence. The effects of the taccalonolides on the drug senstive prostate cancer cell line PC-3 are also presented. IC50 values were calculated from an average of 3-4 independent experiments, each performed in triplicate.
(§3) The HeLa cervical cancer cell line, the SK-OV-3 ovarian cancer cell line and the PC-3 prostate cancer cell line were obtained from American Type Tissue Culture Collection (Manassas, Va.) and grown in Basal Media Eagle (BME) or RPMI 1640 medium (Invitrogen; Carlsbad, Calif.) supplemented with 10% fetal bovine serum (Hyclone; Logan, Utah) and 50 μg/ml gentamicin sulfate (Invitrogen). […]
(§4) The antiproliferative and cytotoxic effects of the taccalonolides were evaluated using the SRB assay (Skehan et al., 1990, Boyd and Paull, 1995) as previously described (Tinley et al., 2003). […]

[7] = system: WTβIII versus HeLa cells; assay: Relative resistance, βIII-tubulin expressing cell line pair; format: cell-based
Description: as §2, §3, §4

[8] = system: MDA-MB-231 human breast tumors; assay: Antitumor activity against MDA-MB-231 tumors in nude mice; format: in vivo
Description: FIG. 6—Antitumor activity of taccalonolide AF. […] Tumor size was measured using calipers and volume calculated with the formula: Tumor volume (mm^3)=width (mm)×length (mm)×height (mm) and graphed as median tumor size for days 0-8.
The ability of taccalonolide AF to inhibit the growth of the aggressive human breast tumor MDA-MB-231 in a murine host was determined Taccalonolide AF was administered at a dose of 2.5 mg/kg on days 1 and 3.

[9] = system: doxorubicin- and paclitaxel-resistant Pgp-expressing tumor, Mam17/ADR; conditions: cited from earlier work
[10] = system: cell lines that overexpress Pgp; conditions: Pgp overexpressing cell lines; cited from earlier work
[11] = system: cell lines that overexpress MRP7; conditions: MRP7 overexpressing cell lines; cited from earlier work
[12] = cited from earlier work
[13] = system: isogenic HeLa-derived cell line that expresses the βIII isotype of tubulin; conditions: cited from earlier work
[14] = parent taccalonolide, read-out: IC50 (nM), Taccalonolide

CC(=O)O[C@H]1C2[C@@H]([C@@H](O)[C@@H](O)[C@H]3C[C@@H]4O[C@@H]4[C@H](OC(C)=O)[C@]23C)[C@@H]2[C@@H](O)[C@@H]3[C@H]([C@H](C)C=C4OC(=O)[C@@](C)(O)[C@@]43C)[C@@]2(C)[C@H]1OC(C)=O (some centres unmarked) [TA-NaBH4-10]
IC50 [1, 14]: 20000 nM

CC(=O)O[C@@H]1[C@H](O)[C@@H]2C([C@H](OC(C)=O)[C@H](OC(C)=O)[C@]3(C)[C@@H]4[C@@H]([C@H](O)[C@@H]23)[C@]2(C)C(=C[C@H]4C)OC(=O)[C@@]2(C)O)[C@]2(C)[C@@H]1C[C@@H]1O[C@@H]1[C@@H]2OC(C)=O (some centres unmarked) [TA-NaBH4-12]
IC50 [1, 14]: 7500 nM

CC(=O)O[C@H]1C(=O)[C@H]2C[C@@H]3O[C@@H]3[C@H](OC(C)=O)[C@]2(C)C2[C@@H]1[C@@H]1[C@@H](O)[C@@H]3[C@H]([C@H](C)C=C4OC(=O)[C@@](C)(O)[C@@]43C)[C@@]1(C)[C@@H](OC(C)=O)[C@H]2OC(C)=O (some centres unmarked) [TB-AC-16]
IC50 [1, 14]: 40000 nM

CC(=O)O[C@@H]1[C@H]2[C@H]3C([C@H](OC(C)=O)[C@H](OC(C)=O)[C@]2(C)[C@@H]2[C@@H]1[C@]1(C)C(=C[C@@]2(C)OO)OC(=O)[C@@]1(C)O)[C@]1(C)[C@H](C[C@@H]2O[C@@H]2[C@@H]1OC(C)=O)C(=O)[C@@H]3O (some centres unmarked) [Taccalonolide AC]
IC50 ([1]; Homo sapiens, parent taccalonolide, read-out: IC50 (nM), Taccalonolide): > 50000 nM | IC50 ([1]; Homo sapiens, read-out: IC50 value): > 50000 nM

CC(=O)O[C@@H]1[C@H]2[C@H]3[C@H]([C@H](OC(C)=O)[C@H](OC(C)=O)[C@]2(C)[C@H]2[C@H](C)[C@H]4O[C@]45OC(=O)[C@@](C)(O)[C@]5(C)[C@@H]12)[C@]1(C)[C@H](C[C@@H]2O[C@@H]2[C@@H]1OC(C)=O)C(=O)[C@@H]3O [Taccalonolide AF]
cytotoxicity of normal cells [2]: No cytotoxicity | rate and extent of tubulin polymerization [3]: dramatically increased | bundling of interphase microtubules [4]: formation of thick bundled microtubule tufts | effect on mitotic spindles [5]: mitotic arrest of cells with multiple abnormal mitotic spindles | relative resistance (IC50 resistant line / IC50 parental line) [6]: much lower than paclitaxel | relative resistance (IC50 resistant line / IC50 parental line) [7]: much lower than paclitaxel | antitumor activity compared to paclitaxel positive control ([8]; 2.5 mg/kg days 1 and 3 vs 10 mg/kg paclitaxel days 1, 3 and 5, first week of treatment): greater antitumor activity than the positive control | antitumor activity compared to vehicle treated controls ([8]; 2.5 mg/kg on days 1 and 3, preliminary): sufficient to observe antitumor activity | fold increase in potency on epoxidation at C22-C23 ([1]; HeLa IC50): 234 fold

CC(=O)O[C@H]1[C@H]2[C@H]([C@@H]3[C@@H](O)[C@@H]4[C@H]([C@H](C)[C@@H]5O[C@@]56OC(=O)[C@@](C)(O)[C@]46C)[C@@]3(C)[C@H]1OC(C)=O)[C@@H](O)C(=O)[C@H]1C[C@@H]3O[C@@H]3[C@H](OC(C)=O)[C@]21C [Taccalonolide AJ]
cytotoxicity of normal cells [2]: No cytotoxicity | rate and extent of tubulin polymerization [3]: dramatically increased | bundling of interphase microtubules [4]: formation of thick bundled microtubule tufts | effect on mitotic spindles [5]: mitotic arrest of cells with multiple abnormal mitotic spindles | relative resistance (IC50 resistant line / IC50 parental line) [6]: much lower than paclitaxel | relative resistance (IC50 resistant line / IC50 parental line) [7]: much lower than paclitaxel | fold increase in potency on epoxidation at C22-C23 ([1]; HeLa IC50): 743 fold

CC(=O)O[C@@H]1[C@H]2[C@H]3[C@H]([C@H](OC(C)=O)[C@H](OC(C)=O)[C@]2(C)[C@@H]2[C@@H]1[C@]1(C)C(=C[C@H]2C)OC(=O)[C@@]1(C)O)[C@]1(C)[C@H](C[C@@H]2O[C@@H]2[C@@H]1OC(C)=O)C(=O)[C@@H]3O [Taccalonolide A]
activity in vivo [9]: highly active | efficacy in vitro [10]: effective | efficacy in vitro [11]: effective | in vivo antitumor activity [12]: have in vivo antitumor activity

CC(=O)O[C@H]1[C@H]2[C@H]([C@@H]3[C@@H](O)[C@@H]4[C@H]([C@H](C)C=C5OC(=O)[C@@](C)(O)[C@@]54C)[C@@]3(C)[C@H]1OC(C)=O)[C@@H](O)C(=O)[C@H]1C[C@@H]3O[C@@H]3[C@H](OC(C)=O)[C@]21C [Taccalonolide B]
efficacy in vitro [10]: effective | efficacy in vitro [11]: effective

CC(=O)O[C@@H]1[C@H]2[C@@H]3[C@@H](O)C(=O)[C@H]4C[C@@H]5O[C@@H]5[C@H](OC(C)=O)[C@]4(C)[C@H]3C[C@H](OC(C)=O)[C@]2(C)[C@@H]2[C@@H]1[C@]1(C)C(=C[C@H]2C)OC(=O)[C@@]1(C)O [Taccalonolide E]
activity in vivo [9]: highly active | efficacy in vitro [10]: effective | efficacy in vitro [11]: effective | in vivo antitumor activity [12]: have in vivo antitumor activity

CC(=O)O[C@H]1[C@@H]2[C@H]([C@H](C)C=C3OC(=O)[C@@](C)(O)[C@@]32C)[C@]2(C)[C@@H]1C1=C(O)C(=O)[C@H]3C[C@@H]4O[C@@H]4[C@H](OC(C)=O)[C@]3(C)[C@H]1[C@H](OC(C)=O)[C@@H]2OC(C)=O [Taccalonolide H2, reference compound]
fold more potent than taccalonolide A ([1]; HeLa IC50): 7.4 fold

CC(=O)O[C@H]1C[C@H]2[C@H]([C@@H]3[C@@H](O)[C@@H]4[C@H]([C@H](C)C=C5OC(=O)[C@@](C)(O)[C@@]54C)[C@]31C)[C@@H](O)C(=O)[C@H]1C[C@@H]3O[C@@H]3[C@H](OC(C)=O)[C@@]12C [Taccalonolide N]
efficacy in vitro [10]: effective | efficacy in vitro [11]: effective | in vivo antitumor activity [12]: have in vivo antitumor activity

CC(=O)O[C@@]12CO[C@@H]1C[C@H](O)[C@@]1(C)C(=O)[C@H](O)C3=C(C)[C@@H](OC(=O)[C@H](O)[C@@H](NC(=O)OC(C)(C)C)c4ccccc4)C[C@@](O)([C@@H](OC(=O)c4ccccc4)[C@H]21)C3(C)C [docetaxel]
sensitivity of βIII-tubulin-overexpressing cell line compared with parental HeLa cells [13]: less sensitive

C/C(=C\c1csc(C)n1)[C@@H]1C[C@@H]2O[C@]2(C)CCC[C@H](C)[C@H](O)[C@@H](C)C(=O)C(C)(C)[C@@H](O)CC(=O)O1 [epothilone B]
sensitivity of βIII-tubulin-overexpressing cell line compared with parental HeLa cells [13]: less sensitive

CC[C@]1(O)C[C@@H]2CN(CCc3c([nH]c4ccccc34)[C@@](C(=O)OC)(c3cc4c(cc3OC)N(C)[C@H]3[C@@](O)(C(=O)OC)[C@H](OC(C)=O)[C@]5(CC)C=CCN6CC[C@]43[C@@H]65)C2)C1 [vinblastine]
sensitivity of βIII-tubulin-overexpressing cell line compared with parental HeLa cells [13]: less sensitive
